Patent US9409952B2, “Peptide-compound cyclization method” (Chugai Seiyaku Kabushiki Kaisha, priority 2011, dated 2016)
Like-named read-outs stand apart in the source and are kept apart here. Starred links: 1 amine or outer side, 2 acyl side, 3 side chain; linkers in the order of their positions; H or OH if unused. Positions of bridges follow the written chain, without caps; N, C: chain ends. Non-standard residues stand in square brackets, D forms with d. Residues, ends and D or L forms follow the SMILES beside them. *: point of attachment. Phe(3-(CH2)4CO) = O=C([C@H](Cc1cccc(CCCCC(=O)[*:3])c1)N[*:1])[*:2]; Ala(4-thiazolyl) = N[C@@H](Cc1cscn1)C(=O)O; Tyr(3-F) = N[C@@H](Cc1ccc(O)c(F)c1)C(=O)O; NMeF = CN[C@@H](Cc1ccccc1)C(=O)O; NMeI = CC[C@H](C)[C@H](NC)C(=O)O; NMeL = CN[C@@H](CC(C)C)C(=O)O; Ala(CN) = N#CC[C@H](N)C(=O)O; NMeV = CN[C@H](C(=O)O)C(C)C; Pip = O=C(O)[C@@H]1CCCCN1; NMeA = CN[C@@H](C)C(=O)O; Piperidide = C1CCN(*)CC1; dNMeA = CN[C@H](C)C(=O)O; Aze = O=C(O)[C@@H]1CCN1; β3hA = C[C@H](N)CC(=O)O; NPrGly = CCCNCC(=O)O; Sar = CNCC(=O)O; tBu = CC(C)(C)*

Assay: Metabolic stability in human hepatic microsome
Format: in vitro ADME
Conditions: for microsomal CLint at 1 uM: microsomes
[1] = pH 7.4, human hepatic microsome, NADPH(+), read-out: CL NADPH(+)

Row | Compound | microsomal CLint at 1 uM [1] | further results
1 | CCCN1CC(=O)N(C)[C@@H](CC(C)C)C(=O)N[C@H](C(=O)N2CCCCC2)CC(=O)N(C)[C@H](C)C(=O)N[C@@H](CC(C)C)C(=O)N(C)[C@@H](CC(C)C)C(=O)N(C)[C@@H](Cc2ccccc2)C(=O)N[C@@H](C)C(=O)N(C)[C@@H](Cc2ccccc2)C(=O)N(C)[C@@H]([C@@H](C)CC)C(=O)N[C@@H]([C@@H](C)O)C1=O [DP-635] ([dNMeA]L[NMeL][NMeF]A[NMeF][NMeI]T[NPrGly][NMeL]D-Piperidide; lactam N-11) | 112 µL/min/mg | 
2 | CC[C@H](C)[C@H](NC(=O)[C@H](CC(C)C)N(C)C(=O)[C@H](CC(C)C)NC(=O)[C@@H]1CC(=O)N[C@@H](C)C(=O)N(C)[C@@H](Cc2ccccc2)C(=O)N(C)[C@@H](CC(C)C)C(=O)N(C)[C@@H](CC(C)C)C(=O)N[C@@H](Cc2ccccc2)C(=O)N[C@@H]([C@@H](C)O)C(=O)N[C@@H](C(C)C)C(=O)N1)C(=O)N1CCCCC1 [DP-934] (A[NMeF][NMeL][NMeL]FTVDL[NMeL]I-Piperidide; lactam N-8) | 143 µL/min/mg | 
3 | CCCN1CC(=O)N[C@@H](COC(C)(C)C)C(=O)N(C)CC(=O)N(C)[C@@H](CC(C)C)C(=O)N[C@@H]([C@@H](C)O)C(=O)N(C)[C@@H](Cc2ccccc2)C(=O)N(C)[C@@H](CC(C)C)C(=O)N(C)[C@@H]([C@@H](C)CC)C(=O)N(C)[C@@H](C)C(=O)N[C@H](C(=O)N2CCCCC2)CC1=O [DP-634] ([NPrGly]S(tBu)[Sar][NMeL]T[NMeF][NMeL][NMeI][NMeA]D-Piperidide; lactam N-10) | 32 µL/min/mg | 
4 | CC[C@H](C)[C@H](NC(=O)[C@@H]1CCCN1C(=O)[C@@H](NC(=O)[C@@H]1CC(=O)N[C@@H](C)C(=O)N[C@@H](CC(C)C)C(=O)N(C)[C@@H](CC(C)C)C(=O)N[C@@H](C)C(=O)N[C@@H](CC(C)C)C(=O)N(C)[C@@H](Cc2ccccc2)C(=O)N[C@@H](Cc2ccccc2)C(=O)N1)[C@@H](C)O)C(=O)N1CCCCC1 [DP-45] (AL[NMeL]AL[NMeF]FDTPI-Piperidide; lactam N-8) |  | microsomal CLint at 1 uM (human, pH 7.4, CL NADPH(+)): 129 µL/min/mg
5 | CC[C@H](C)[C@H]1C(=O)N[C@@H](C)C(=O)N(C)[C@@H](Cc2ccccc2)C(=O)N[C@@H]([C@@H](C)O)C(=O)N(C)[C@@H](CC(C)C)C(=O)N[C@@H](Cc2ccccc2)C(=O)N(C)[C@@H](C(C)C)C(=O)N[C@H](C(=O)N2CCCCC2)CC(=O)N[C@@H](C)C(=O)NCC(=O)N(C)[C@@H](CC(C)C)C(=O)N1C [DP-31] (AG[NMeL][NMeI]A[NMeF]T[NMeL]F[NMeV]D-Piperidide; lactam N-11) |  | microsomal CLint at 1 uM (human, pH 7.4, CL NADPH(+)): 57 µL/min/mg
6 | CC[C@H](C)[C@@H]1NC(=O)[C@H](C)N(C)C(=O)[C@H](Cc2ccccc2)NC(=O)[C@H](Cc2ccccc2)NC(=O)[C@H](CC(C)C)NC(=O)[C@H](C(C)C)N(C)C(=O)[C@H](CC(C)C)NC(=O)[C@H](C)NC(=O)[C@H](C)NC(=O)C[C@@H](C(=O)N2CCCCC2)NC(=O)CNC(=O)[C@H]([C@@H](C)O)NC1=O [DP-84] (AAL[NMeV]LFF[NMeA]ITGD-Piperidide; lactam N-12) | 21 µL/min/mg | 
7 | CC(C)C[C@@H]1NC(=O)[C@H](CC(C)C)N(C)C(=O)[C@H](CC(C)C)N(C)C(=O)[C@H](C)NC(=O)[C@H](Cc2ccccc2)N(C)C(=O)[C@H](CCC(=O)N(C)C)NC(=O)[C@H](CC(C)C)N(C)C(=O)[C@H](Cc2ccccc2)NC(=O)[C@H](C)NC(=O)C[C@@H](C(=O)N(C)[C@@H](Cc2ccccc2)C(=O)N[C@@H](C)C(=O)N2CCCCC2)NC1=O [DP-603] (AF[NMeL]E(NMe2)[NMeF]A[NMeL][NMeL]LD[NMeF]A-Piperidide; lactam N-10) | 17 µL/min/mg | 
8 | CC(C)C[C@@H]1NC(=O)[C@H](CC(C)C)N(C)C(=O)[C@H](C)N(C)C(=O)[C@H](Cc2ccc(O)c(F)c2)NC(=O)[C@H](Cc2ccccc2)N(C)C(=O)[C@H]([C@@H](C)O)NC(=O)[C@H](CC(C)C)N(C)C(=O)[C@H](Cc2ccccc2)NC(=O)[C@H](C)NC(=O)C[C@@H](C(=O)N(C)[C@@H](Cc2ccccc2)C(=O)N[C@@H](C)C(=O)N2CCCCC2)NC1=O [DP-606] (AF[NMeL]T[NMeF][Tyr(3-F)][NMeA][NMeL]LD[NMeF]A-Piperidide; lactam N-10) | 70 µL/min/mg | 
9 | CC[C@H](C)[C@H]1C(=O)N[C@H](C(=O)N2CCCCC2)CC(=O)N[C@@H](C)C(=O)N(C)[C@@H](Cc2ccccc2)C(=O)N(C)[C@@H](CC(C)C)C(=O)N[C@@H]([C@@H](C)O)C(=O)N(C)CC(=O)N(C)[C@@H](CC(C)C)C(=O)N[C@@H](COC(C)(C)C)C(=O)N1C [Compound P-123, Ala-MePhe-MeLeu-Thr-MeGly-MeLeu-Ser(tBu)-MeIle-Asp-piperidine] (A[NMeF][NMeL]T[Sar][NMeL]S(tBu)[NMeI]D-Piperidide; lactam N-9) |  | Hepatic microsome CLhint (Human) In the absence of NADPH: 0 ul/min/mg Protein; microsomal CLint at 1 uM (human, pH 7.4, Hepatic microsome CLhint (Human) In the presence of NADPH): 106 µL/min/mg
10 | CC[C@H](C)[C@H]1C(=O)NCC(=O)N2CCCC[C@H]2C(=O)N[C@@H]([C@@H](C)O)C(=O)N2CCC[C@H]2C(=O)N[C@@H](Cc2ccccc2)C(=O)N[C@H](C(=O)N2CCCCC2)CC(=O)N(C)[C@@H](C)C(=O)N[C@@H](Cc2ccccc2)C(=O)N(C)[C@@H](CC(C)C)C(=O)N[C@@H](CC(C)C)C(=O)N1C [DP-557] ([NMeA]F[NMeL]L[NMeI]G[Pip]TPFD-Piperidide; lactam N-11) | 96 µL/min/mg | 
11 | CC(C)C[C@@H]1NC(=O)[C@H](CC(C)C)N(C)C(=O)[C@H](CC(C)C)N(C)C(=O)CNC(=O)[C@H](Cc2ccccc2)N(C)C(=O)[C@H](Cc2cscn2)NC(=O)[C@H](CC(C)C)N(C)C(=O)[C@H](Cc2ccccc2)NC(=O)[C@H](C)NC(=O)C[C@@H](C(=O)N(C)[C@@H](Cc2ccccc2)C(=O)N[C@@H](C)C(=O)N2CCCCC2)NC1=O [DP-609] (AF[NMeL][Ala(4-thiazolyl)][NMeF]G[NMeL][NMeL]LD[NMeF]A-Piperidide; lactam N-10) | 16 µL/min/mg | 
12 | CC(C)C[C@@H]1NC(=O)[C@H](CC(C)C)N(C)C(=O)[C@H](C)N(C)C(=O)[C@@H](C(C)C)NC(=O)C[C@@H](C(=O)N2CCCCC2)NC(=O)[C@H]([C@@H](C)O)NC(=O)[C@H](C)N(C)C(=O)CN(C)C(=O)[C@H](CC(C)C)N(C)C(=O)[C@H](Cc2c[nH]c3ccccc23)NC(=O)[C@H](Cc2ccccc2)N(C)C1=O [DP-622] ([dV][NMeA][NMeL]L[NMeF]W[NMeL][Sar][NMeA]TD-Piperidide; lactam N-11) | 36 µL/min/mg | 
13 | CC[C@H](C)[C@@H]1NC(=O)[C@H](Cc2ccccc2)N(C)C(=O)[C@H](Cc2ccccc2)NC(=O)[C@H](CC(C)C)N(C)C(=O)[C@H](CC(C)C)NC(=O)[C@H](C)NC(=O)C[C@@H](C(=O)N2CCCCC2)NC(=O)[C@H]([C@@H](C)O)NC(=O)[C@@H]2CCCN2C1=O [DP-33] (AL[NMeL]F[NMeF]IPTD-Piperidide; lactam N-9) |  | microsomal CLint at 1 uM (human, pH 7.4, CL NADPH(+)): 202 µL/min/mg
14 | CC[C@H](C)[C@H](NC(=O)[C@H](Cc1ccccc1)N(C)C(=O)[C@@H]1CC(=O)N(C)[C@@H](C)C(=O)N[C@@H](Cc2ccccc2)C(=O)N(C)[C@@H](CC(C)C)C(=O)N(C)[C@@H](CC(C)C)C(=O)N[C@@H](Cc2ccccc2)C(=O)N(C)[C@@H](CC(C)C)C(=O)N[C@@H]([C@@H](C)CC)C(=O)N2CCC[C@H]2C(=O)N[C@@H]([C@@H](C)O)C(=O)N[C@@H](CC(C)C)C(=O)N1)C(=O)N1CCCCC1 [DP-962] ([NMeA]F[NMeL][NMeL]F[NMeL]IPTLD[NMeF]I-Piperidide; lactam N-11) |  | microsomal CLint at 1 uM (human, pH 7.4, CL NADPH(+)): 22 µL/min/mg
15 | CC[C@H](C)[C@H]1C(=O)NCC(=O)N(C)[C@@H](CC(C)C)C(=O)N[C@@H]([C@@H](C)O)C(=O)N2CCC[C@H]2C(=O)N[C@@H](Cc2ccccc2)C(=O)N[C@H](C(=O)N2CCCCC2)CC(=O)N2CC[C@H]2C(=O)N[C@@H](Cc2ccccc2)C(=O)N(C)[C@@H](CC(C)C)C(=O)N[C@@H](CC(C)C)C(=O)N1C [DP-550] ([Aze]F[NMeL]L[NMeI]G[NMeL]TPFD-Piperidide; lactam N-11) | 108 µL/min/mg | 
16 | CC(C)C[C@H]1C(=O)N(C)CC(=O)N(C)[C@@H](C)C(=O)N[C@@H]([C@@H](C)O)C(=O)N[C@H](C(=O)N2CCCCC2)CC(=O)N[C@H](C(C)C)C(=O)N(C)[C@@H](C)C(=O)N(C)[C@@H](CC(C)C)C(=O)N[C@@H](CC#N)C(=O)N(C)[C@@H](Cc2ccccc2)C(=O)N[C@@H](Cc2ccccc2)C(=O)N1C [DP-629] ([dV][NMeA][NMeL][Ala(CN)][NMeF]F[NMeL][Sar][NMeA]TD-Piperidide; lactam N-11) | 16 µL/min/mg | 
17 | CC[C@H](C)[C@@H]1NC(=O)[C@H](CC(C)C)N(C)C(=O)[C@H](CC(C)C)N(C)C(=O)[C@H](C)NC(=O)[C@H](CC(C)C)N(C)C(=O)[C@H](Cc2ccccc2)NC(=O)[C@H]([C@@H](C)O)NC(=O)[C@H](CC(C)C)N(C)C(=O)[C@H](CC(C)C)N(C)C(=O)[C@H](C)N(C)C(=O)C[C@H](C)NC1=O [DP-772] (cyclo(A[NMeL][NMeL]I[β3hA][NMeA][NMeL][NMeL]TF[NMeL])) |  | microsomal CLint at 1 uM (human, pH 7.4, CL NADPH(+)): 153 µL/min/mg
18 | CC[C@H](C)[C@H]1C(=O)N[C@@H]([C@@H](C)O)C(=O)N(C)CC(=O)N(C)[C@@H](CC(C)C)C(=O)N[C@H](C(=O)N2CCCCC2)Cc2cccc(c2)CCCCC(=O)N[C@@H](CC(C)C)C(=O)N(C)[C@@H](CC(C)C)C(=O)N(C)[C@@H](Cc2ccccc2)C(=O)N[C@@H](C)C(=O)N(C)[C@@H](Cc2ccccc2)C(=O)N1C [DP-857] (L[NMeL][NMeF]A[NMeF][NMeI]T[Sar][NMeL][Phe(3-(CH2)4CO)]-Piperidide; lactam N-10) | 284 µL/min/mg | 
19 | CC[C@H](C)[C@@H]1NC(=O)[C@H](Cc2ccccc2)N(C)C(=O)[C@H](Cc2ccccc2)NC(=O)[C@H](C(C)C)N(C)C(=O)[C@H](CC(C)C)N(C)C(=O)[C@H](CC(C)C)NC(=O)[C@H](C)NC(=O)C[C@@H](C(=O)N2CCCCC2)NC(=O)[C@H]([C@@H](C)O)NC(=O)CNC(=O)[C@H](C)N(C)C1=O [DP-85] (AL[NMeL][NMeV]F[NMeF]I[NMeA]GTD-Piperidide; lactam N-11) | 58 µL/min/mg | 
